Values after ≈ are worked out from the molar mass of the structure shown.

The test system of the first test is Mycobacterium tuberculosis. The experiment in a line: Antitubercular activity against Mycobacterium tuberculosis H37Rv by low oxygen recovery assay. Format: functional.
Settings: not given
Broadly, the MIC is the lowest concentration found to suppress growth. A high value points to weaker potency. Turning to `CCCCCCCCCCCCCCC1CCC(=O)O1` (configuration not stated), the MIC was over 128 µM. The compound `CCCCCCCC/C=C\CCCCC1CCC(=O)O1` (racemic) registered a minimum inhibitory concentration (MIC) of 124 µM (≈ 34.8 µg/mL).

A further test has as its system Mycobacterium tuberculosis. The test is described as follows: Antitubercular activity against Mycobacterium tuberculosis H37Rv after 4 days by microplate alamar blue assay. Conditions: 96 h. Format: functional.
`O=C1CCC(CCCCC2CC(C(=O)NCc3ccccc3)=NO2)O1` (configuration not stated) gave an MIC of over 128 µM.

The compound `CCCCCCCCNC(=O)CCCCC1CCC(=O)O1` (configuration not stated) came in with an MIC of over 128 µM. Take `CCCCCCC/C=C\CCCCC1CCC(=O)O1` (configuration not stated): inhibition of growth (MIC) required 14.7 µM. Regarding `CCCCCCCCC#CCCCCC1CCC(=O)O1` (configuration not stated), the minimal inhibitory concentration (MIC) was 44 µM.

As for `CCCCCCCC/C=C\CCCC[C@@H]1CCC(=O)O1`, the lowest concentration to inhibit growth (MIC) was 1.5 µg/mL. The compound `CCCCCCCCCCCCCCC1CCC(=O)O1` (configuration not stated) showed an MIC of over 128 µM. Regarding `CCCCCCOC(=O)C1=NOC(CCCCC2CCC(=O)O2)C1` (configuration not stated), it took 63.1 µM to inhibit growth (MIC). That is a double-digit micromolar value.

`CCCCCCCC(=O)NCCCCC1CCC(=O)O1` (configuration not stated) had an MIC of over 128 µM. The same measure, in the same setting: next, `CCCCCCCC/C=C/CCCCC1CCC(=O)O1` (configuration not stated): 19.7 µM; `CCCCCCCc1cc(CCCCC2CCC(=O)O2)on1` (configuration not stated): 63.4 µM. Consider `CCOC(=O)c1cc(CCCCC2CCC(=O)O2)on1` (configuration not stated), for which the minimum inhibitory concentration (MIC) is over 128 µM. The compound `CCN(CC)C(=O)C1=NOC(CCCCC2CCC(=O)O2)C1` (configuration not stated) displayed an MIC of over 128 µM. The same measure, in the same setting: next, `CC(C)(C)OC(=O)C1=NOC(CCCCC2CCC(=O)O2)C1` (configuration not stated): over 128 µM; `CCCCCCC1=NOC(CCCCC2CCC(=O)O2)C1` (configuration not stated): over 128 µM. `CCCCCCCC1=NOC(CCCCC2CCC(=O)O2)C1` (configuration not stated) showed an MIC of over 128 µM. In the case of `CCCCCCC1=NOC(CCCC2CCC(=O)O2)C1` (configuration not stated), the minimal inhibitory concentration (MIC) was over 128 µM. Same read-out and setting: next, `CCCCCCCC1=NOC(CCCC2CCC(=O)O2)C1` (configuration not stated): over 128 µM.

As to `O=C1CCC(CCCCC2CC(C(=O)O)=NO2)O1` (configuration not stated), the minimum inhibitory concentration (MIC) was over 128 µM. The same measure, in the same setting: for `CCOC(=O)C1=NOC(CCCCC2CCC(=O)O2)C1` (configuration not stated) the value was over 128 µM; for `CCCCCCCCC(=O)NCCCCC1CCC(=O)O1` (configuration not stated), over 128 µM. In turn, `CCCCCCNC(=O)C1=NOC(CCCCC2CCC(=O)O2)C1` (configuration not stated) had an MIC of over 128 µM.

`CCCCCCCC#CCCCCC1CCC(=O)O1` (configuration not stated) yielded an MIC of 70.2 µM. In the case of `CCCCCCNC(=O)c1cc(CCCCC2CCC(=O)O2)on1` (configuration not stated), the MIC is over 128 µM. `O=C1CCC(CCCCC2CC(C(=O)OCc3ccccc3)=NO2)O1` (configuration not stated) had a minimal inhibitory concentration (MIC) of over 128 µM. Consider `CCCCCCCC/C=C\CCCCC1CCC(=O)O1` (racemic), for which the MIC was found to be 6.9 µM.

For the origin of these results see ChEMBL document CHEMBL1141707, “Modification of the side chain of micromolide, an anti-tuberculosis natural product” (2008).
